Here are results for three compounds from ChEMBL document CHEMBL5725498, “ROR modulators and their uses” (2017).

What is called IC50 is the concentration needed to halve the response being measured.

In assay [1] the target is T1, Nuclear receptor ROR-gamma (Homo sapiens, UniProt P51449).
T1 sequence (P51449 whole entry): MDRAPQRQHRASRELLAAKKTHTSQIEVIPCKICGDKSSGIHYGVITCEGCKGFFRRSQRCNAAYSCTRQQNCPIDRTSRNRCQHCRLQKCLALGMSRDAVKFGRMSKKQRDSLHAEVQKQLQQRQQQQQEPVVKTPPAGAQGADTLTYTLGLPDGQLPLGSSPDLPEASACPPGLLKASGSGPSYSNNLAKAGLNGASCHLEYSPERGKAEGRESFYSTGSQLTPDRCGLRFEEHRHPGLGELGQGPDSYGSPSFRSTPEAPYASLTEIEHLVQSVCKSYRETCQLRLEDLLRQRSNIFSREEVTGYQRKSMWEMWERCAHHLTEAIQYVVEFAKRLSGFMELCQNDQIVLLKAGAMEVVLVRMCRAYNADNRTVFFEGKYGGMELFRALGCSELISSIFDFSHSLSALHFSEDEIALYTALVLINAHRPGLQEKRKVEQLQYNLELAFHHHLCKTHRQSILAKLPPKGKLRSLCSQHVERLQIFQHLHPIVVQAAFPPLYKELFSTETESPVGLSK
Put plainly: RORgamma LBD Binding Assay: Compound binding to the human RORγ LBD was assessed using the Human RORγ Assay System (INDIGO Biosciences Inc.) as per manufacturer's instructions. Binding to the RORγ LBD was assessed using gradient concentrations of the indicated compounds in a final concentration of 0.5% DMSO, where IC50s were generated using Graphpad Prism.

Assay [2] in a line: TH17 Cytokine Inhibition ELISA: Human CD4+ T cells were differentiated to TH17 cells as described in the presence or absence of various concentrations of compounds in a final concentration of 0.1% DMSO in TexMACS medium. Supernatants were collected and stored at −20° C. until they were to be assayed for IL-17A, IL-17F, IL-17AF, IL-21 and/or IL-22 levels as determined by Ready-Set-Go ELISA kits (eBioscience) as per manufacturer's instructions. Endpoint absorbance was read at 450 nm and 570 nm according to manufacturer's instructions (eBioscience) using a microplate reader (Perkin Elmer). The percentage of cytokine inhibition was calculated with reference to DMSO treated cells and the IC50s were determined by GraphPad Prism software and presented in the table below.

With `CN(C)C(=O)c1ccc2c(c1)CCC(=O)N2Cc1ccc(C(O)(C(F)(F)F)C(F)(F)F)cc1`, the IC50 was under 10 µM in assay [1] and over 10 µM in assay [2].
In the case of `CN(C)C(=O)c1ccc2c(ccc(=O)n2Cc2ccc(C(O)(C(F)(F)F)C(F)(F)F)cc2)c1`, the IC50 in assay [2] is under 10 µM.
Regarding `OC(c1ccc(CBr)cc1)(C(F)(F)F)C(F)(F)F`, the IC50 in assay [2] was under 10 µM.
